Assay [1] deals with T1, Short transient receptor potential channel 4 (Mus musculus, UniProt Q9QUQ5).
T1 sequence (Q9QUQ5 whole entry): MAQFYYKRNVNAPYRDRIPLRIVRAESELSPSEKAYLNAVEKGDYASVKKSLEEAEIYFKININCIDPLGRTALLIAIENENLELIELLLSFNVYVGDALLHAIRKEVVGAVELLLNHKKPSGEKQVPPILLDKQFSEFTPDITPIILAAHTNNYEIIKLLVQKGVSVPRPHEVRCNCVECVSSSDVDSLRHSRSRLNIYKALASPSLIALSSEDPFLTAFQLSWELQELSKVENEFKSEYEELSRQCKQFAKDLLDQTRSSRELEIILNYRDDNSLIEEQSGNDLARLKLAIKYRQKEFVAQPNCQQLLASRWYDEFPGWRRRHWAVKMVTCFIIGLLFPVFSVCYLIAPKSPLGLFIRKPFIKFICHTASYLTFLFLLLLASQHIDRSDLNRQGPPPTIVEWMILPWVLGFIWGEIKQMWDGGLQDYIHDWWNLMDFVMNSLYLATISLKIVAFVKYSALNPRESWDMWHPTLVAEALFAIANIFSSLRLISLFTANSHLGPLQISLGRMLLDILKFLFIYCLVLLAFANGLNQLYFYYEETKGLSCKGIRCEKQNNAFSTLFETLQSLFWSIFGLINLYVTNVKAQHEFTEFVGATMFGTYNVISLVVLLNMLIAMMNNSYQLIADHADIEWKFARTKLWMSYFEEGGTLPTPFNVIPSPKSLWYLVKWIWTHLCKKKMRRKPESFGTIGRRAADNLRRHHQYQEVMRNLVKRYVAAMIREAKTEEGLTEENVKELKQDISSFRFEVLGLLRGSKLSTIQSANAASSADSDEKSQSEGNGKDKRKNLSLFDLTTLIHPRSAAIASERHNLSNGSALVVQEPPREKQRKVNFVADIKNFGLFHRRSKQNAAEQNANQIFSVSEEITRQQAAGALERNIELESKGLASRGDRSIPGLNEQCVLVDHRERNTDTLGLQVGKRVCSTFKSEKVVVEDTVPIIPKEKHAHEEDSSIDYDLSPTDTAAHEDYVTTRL
Put plainly: calcium entry via TRPC4 opening agents – cell-based, HEK293 TRPC4/mu-opioid, Fluo-4 calcium, dose response (AID 434937). In kind it is functional.

Assay [2] has as its target T2, Mu-type opioid receptor (Homo sapiens, UniProt P35372). Nature of the assay: Counterscreen for agonists of heterodimerization of the mu 1 (OPRM1) and delta 1 (OPRD1) opioid receptors: Luminescence-based cell-based high throughput dose response assay to identify agonists of OPRM1 homodimerization. In kind it is functional. (The purpose of a counterscreen is to sort out artefacts and off-target activity.)

Assay [3] deals with T3, Delta-type opioid receptor (Homo sapiens, UniProt P41143). Nature of the assay: Counterscreen for agonists of heterodimerization of the mu 1 (OPRM1) and delta 1 (OPRD1) opioid receptors: Luminescence-based cell-based high throughput dose response assay to identify agonists of OPRD1 homodimerization. [Related pubchem assays (depositor defined):AID504326, AID504355, AID504692, AID504904, AID504905]. Type of assay: functional.
T3 sequence (P41143 whole entry): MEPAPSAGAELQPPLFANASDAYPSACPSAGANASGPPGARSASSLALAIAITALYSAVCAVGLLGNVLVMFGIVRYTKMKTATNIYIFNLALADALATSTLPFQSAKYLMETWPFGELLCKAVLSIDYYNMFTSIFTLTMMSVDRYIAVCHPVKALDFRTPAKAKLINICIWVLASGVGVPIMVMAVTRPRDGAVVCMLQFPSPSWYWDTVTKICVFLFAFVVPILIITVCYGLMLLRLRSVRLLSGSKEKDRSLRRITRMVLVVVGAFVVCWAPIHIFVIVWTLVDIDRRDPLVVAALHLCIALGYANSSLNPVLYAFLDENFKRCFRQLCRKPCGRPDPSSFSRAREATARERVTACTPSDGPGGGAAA

Assay [4] has as its target 5-hydroxytryptamine receptor 5A (Homo sapiens, UniProt P47898). Nature of the assay: Counterscreen for agonists of OPRM1-OPRD1 heterodimerization: luminescence-based cell-based high throughput dose response assay to identify agonists of 5-hydroxytryptamine (serotonin) 5A receptor (HTR5A). [Related pubchem assays (depositor defined):AID504326, AID504355, AID504692, AID504904, AID504905]. In kind it is functional.

The nature of assay [5]: HEK-293T viability loss, compound-treated – cell-based, uHTS hits, cytotoxicity control for B/T-cell NF-kB inhibitor project, dose response (AID 489019).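 Further: IC50 reflects cytotoxicity as loss of cell viability.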 In kind it is functional.
Assay [6] is described as follows: Trypanosoma cruzi growth suppression in host cells – NIH3T3 host cells, beta-gal luminescence, confirmation (AID 2044).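 Further: intracellular parasites grown in NIH/3T3 mouse fibroblasts as host cells; luminescent beta-galactosidase reporter signal from transgenic T. cruzi replicating inside host cells; inhibitors lower the luminescence signal.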 In kind it is functional, cell-based.
The next assay has as its system INS1. Put plainly: INS-1E survival protection against cytokine death – cell-based, luminescence, retest, dose response (AID 449756).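 Further: cell death triggered by IL-1 beta plus TNF-alpha plus IFN-gamma mixture; protective hits raise ATP signal compared with cytokine alone wells.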 Type of assay: functional. As to conditions: Rattus norvegicus.
A further assay deals with Jurkat. Put plainly: blockers of NF-kB activation in T cells – Jurkat, luciferase reporter, luminescence, B- and T-cell, dose response (AID 489004).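 Further: NF-kB luciferase reporter Jurkat cells stimulated with PMA plus ionomycin.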 Type of assay: functional, cell-based. As to conditions: Homo sapiens. (A reporter such as luciferase makes a cellular process visible.)
A short description of assay [7]: NIH3T3 cell viability loss – ATP luminescence, mouse fibroblasts, counter-screen, dose response (AID 2010).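 Further: cells exposed to compound for about 90 hours before reading.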 In kind it is functional, cell-based.
Assay [8] addresses T3, Delta-type opioid receptor. Put plainly: SAR Analysis of Agonists of the DOR Receptor using an Image-Based Assay - Set 2. [Related pubchem assays (depositor defined):AID1777, AID1785, AID1786, AID1966, AID2133, AID2136, AID2284, AID2285, AID2370]. In kind it is functional.
The target in assay [9] is T4, Kappa-type opioid receptor (Homo sapiens, UniProt P41145). Put plainly: SAR analysis of Agonists of the Kappa Opioid Receptor (KOR) using an Image-Based Assay - Set 2. [Related pubchem assays (depositor defined):AID1777, AID1786, AID1966, AID2133, AID2136, AID2284, AID2285, AID2359]. Type of assay: functional.
T4 sequence (P41145 whole entry): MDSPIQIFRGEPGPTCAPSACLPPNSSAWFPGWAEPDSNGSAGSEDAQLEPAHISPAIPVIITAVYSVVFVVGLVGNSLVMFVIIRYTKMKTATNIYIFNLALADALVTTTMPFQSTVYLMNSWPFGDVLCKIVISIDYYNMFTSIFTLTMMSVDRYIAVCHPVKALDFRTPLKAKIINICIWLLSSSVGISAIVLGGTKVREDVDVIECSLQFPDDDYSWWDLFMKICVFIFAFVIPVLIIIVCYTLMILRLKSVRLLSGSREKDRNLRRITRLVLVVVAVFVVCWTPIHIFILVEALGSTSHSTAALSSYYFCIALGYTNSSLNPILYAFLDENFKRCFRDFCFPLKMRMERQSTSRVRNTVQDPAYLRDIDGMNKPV
Assay [10] has as its target T3, Delta-type opioid receptor. Nature of the assay: SAR Analysis of Antagonists of the DOR Receptor using an Image-Based Assay - Set 2. [Related pubchem assays (depositor defined):AID1777, AID1785, AID1786, AID1966, AID2133, AID2136, AID2284, AID2285, AID2357]. Type of assay: functional.
In assay [11] the target is T4, Kappa-type opioid receptor. Put plainly: SAR analysis of Antagonists of the Kappa Opioid Receptor (KOR) using an Image-Based Assay - Set 2. [Related pubchem assays (depositor defined):AID1777, AID1785, AID1786, AID1966, AID2133, AID2136, AID2284, AID2285, AID2348]. Type of assay: functional.
For assay [12], the target named is T2, Mu-type opioid receptor. Put plainly: SAR Analysis of Agonists of the MOR Receptor using an Image-Based Assay - Set 2. [Related pubchem assays (depositor defined):AID1777, AID1785, AID1786, AID1966, AID2133, AID2136, AID2284, AID2285, AID2352]. Type of assay: functional.
The target in assay [13] is T2, Mu-type opioid receptor. Nature of the assay: SAR Analysis of Antagonists of the MOR Receptor using an Image-Based Assay - Set 2. [Related pubchem assays (depositor defined):AID1777, AID1785, AID1786, AID1966, AID2133, AID2136, AID2284, AID2285, AID2420]. In kind it is functional.
The target in assay [14] is T4, Kappa-type opioid receptor. Put plainly: SAR analysis of small molecule agonists of the kappa opioid receptor via a luminescent beta-arrestin assay - Set 2. [Related pubchem assays (depositor defined):AID1777, AID1785, AID1786, AID1966, AID2133, AID2136, AID2284, AID449737]. In kind it is functional.
The target in assay [15] is Voltage-dependent T-type calcium channel subunit alpha-1H (Homo sapiens, UniProt O95180). Put plainly: inhibition of CACNA1H calcium flux – cell-based, SynthLib3 library, HEK293 Cav3.2, fluorescence (AID 493041). In kind it is functional. A general note: Calcium assays in cells follow changes in intracellular calcium, usually with a dye or a luminescent sensor.
Sequence of Voltage-dependent T-type calcium channel subunit alpha-1H (O95180 whole entry): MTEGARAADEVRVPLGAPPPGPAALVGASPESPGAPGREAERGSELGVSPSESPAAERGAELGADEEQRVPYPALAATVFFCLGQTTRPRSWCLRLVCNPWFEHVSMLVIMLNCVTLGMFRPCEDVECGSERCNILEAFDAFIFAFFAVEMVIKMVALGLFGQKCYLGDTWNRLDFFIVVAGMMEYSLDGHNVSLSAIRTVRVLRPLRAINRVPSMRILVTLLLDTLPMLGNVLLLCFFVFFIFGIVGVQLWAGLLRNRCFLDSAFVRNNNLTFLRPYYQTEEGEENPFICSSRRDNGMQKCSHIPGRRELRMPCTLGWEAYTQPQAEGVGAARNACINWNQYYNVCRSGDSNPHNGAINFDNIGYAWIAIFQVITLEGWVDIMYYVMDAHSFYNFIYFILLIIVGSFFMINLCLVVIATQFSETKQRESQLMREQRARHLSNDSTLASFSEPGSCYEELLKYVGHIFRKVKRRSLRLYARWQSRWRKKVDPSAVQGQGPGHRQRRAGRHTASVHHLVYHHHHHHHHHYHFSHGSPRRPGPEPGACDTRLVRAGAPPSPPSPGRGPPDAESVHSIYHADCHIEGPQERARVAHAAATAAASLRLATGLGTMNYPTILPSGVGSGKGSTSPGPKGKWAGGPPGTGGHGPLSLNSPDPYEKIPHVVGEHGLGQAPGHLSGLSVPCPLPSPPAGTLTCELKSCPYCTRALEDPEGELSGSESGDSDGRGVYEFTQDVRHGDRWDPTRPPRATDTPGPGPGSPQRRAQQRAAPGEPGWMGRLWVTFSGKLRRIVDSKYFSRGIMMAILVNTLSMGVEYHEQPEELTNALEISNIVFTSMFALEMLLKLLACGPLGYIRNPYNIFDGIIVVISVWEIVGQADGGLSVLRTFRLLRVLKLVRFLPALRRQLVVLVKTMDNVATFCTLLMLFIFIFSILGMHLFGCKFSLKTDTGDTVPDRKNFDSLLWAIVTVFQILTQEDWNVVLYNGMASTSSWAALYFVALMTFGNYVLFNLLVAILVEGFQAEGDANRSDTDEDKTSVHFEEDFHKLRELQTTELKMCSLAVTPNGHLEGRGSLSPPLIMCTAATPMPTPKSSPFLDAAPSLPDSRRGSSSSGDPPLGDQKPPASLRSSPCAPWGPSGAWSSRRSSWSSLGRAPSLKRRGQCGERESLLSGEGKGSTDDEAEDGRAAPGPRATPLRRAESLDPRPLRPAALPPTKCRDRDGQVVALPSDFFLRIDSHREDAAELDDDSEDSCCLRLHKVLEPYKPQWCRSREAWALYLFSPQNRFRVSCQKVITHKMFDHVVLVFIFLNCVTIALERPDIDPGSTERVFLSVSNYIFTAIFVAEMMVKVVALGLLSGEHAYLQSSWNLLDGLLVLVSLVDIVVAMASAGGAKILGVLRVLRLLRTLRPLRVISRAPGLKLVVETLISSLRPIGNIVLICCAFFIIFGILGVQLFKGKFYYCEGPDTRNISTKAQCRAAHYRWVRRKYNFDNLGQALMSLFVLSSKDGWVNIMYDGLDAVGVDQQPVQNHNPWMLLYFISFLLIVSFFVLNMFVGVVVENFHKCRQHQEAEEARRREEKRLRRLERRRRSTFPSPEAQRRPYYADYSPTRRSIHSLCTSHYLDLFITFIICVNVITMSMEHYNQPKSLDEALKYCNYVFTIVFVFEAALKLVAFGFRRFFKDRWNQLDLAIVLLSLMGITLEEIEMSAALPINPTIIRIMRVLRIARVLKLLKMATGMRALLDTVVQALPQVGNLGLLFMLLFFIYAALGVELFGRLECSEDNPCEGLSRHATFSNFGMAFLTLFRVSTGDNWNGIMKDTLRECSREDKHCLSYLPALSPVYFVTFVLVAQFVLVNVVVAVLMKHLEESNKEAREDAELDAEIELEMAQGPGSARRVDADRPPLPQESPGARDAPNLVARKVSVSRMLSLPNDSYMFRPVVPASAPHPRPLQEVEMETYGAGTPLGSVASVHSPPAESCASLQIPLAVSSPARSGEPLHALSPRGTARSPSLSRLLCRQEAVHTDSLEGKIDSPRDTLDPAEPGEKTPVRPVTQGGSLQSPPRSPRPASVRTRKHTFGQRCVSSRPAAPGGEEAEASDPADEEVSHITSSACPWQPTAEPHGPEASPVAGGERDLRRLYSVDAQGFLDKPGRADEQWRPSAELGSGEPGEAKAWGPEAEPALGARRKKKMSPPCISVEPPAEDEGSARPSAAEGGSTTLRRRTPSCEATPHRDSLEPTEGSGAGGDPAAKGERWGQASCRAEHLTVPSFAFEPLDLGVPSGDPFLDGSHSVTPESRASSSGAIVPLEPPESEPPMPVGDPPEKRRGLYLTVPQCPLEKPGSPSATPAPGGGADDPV
A short description of assay [16]: T. cruzi infection blockers in NIH3T3 cells – beta-gal luminescence, NIH3T3 host cells, confirmation (AID 2630). Type of assay: functional, cell-based. As to conditions: Mus musculus.

This note sets out measurements from ChEMBL document CHEMBL1201862, “PubChem BioAssay data set” (2004).

Molecules are shown by their SMILES. The source made the active and inactive calls. Unless noted, the calls are words filed in the database; no cut-off is given here.

T2 sequence (P35372 whole entry): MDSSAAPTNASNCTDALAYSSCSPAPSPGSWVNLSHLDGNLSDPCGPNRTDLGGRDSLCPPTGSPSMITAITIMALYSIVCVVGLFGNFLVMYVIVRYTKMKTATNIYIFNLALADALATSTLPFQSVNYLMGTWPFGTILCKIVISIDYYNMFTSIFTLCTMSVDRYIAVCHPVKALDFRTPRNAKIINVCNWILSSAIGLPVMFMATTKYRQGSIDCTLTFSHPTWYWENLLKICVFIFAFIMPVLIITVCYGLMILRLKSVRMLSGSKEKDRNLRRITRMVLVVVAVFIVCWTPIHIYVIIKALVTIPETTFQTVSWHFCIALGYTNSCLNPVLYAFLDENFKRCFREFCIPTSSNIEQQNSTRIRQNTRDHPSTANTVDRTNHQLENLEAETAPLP
Sequence of 5-hydroxytryptamine receptor 5A (P47898 whole entry): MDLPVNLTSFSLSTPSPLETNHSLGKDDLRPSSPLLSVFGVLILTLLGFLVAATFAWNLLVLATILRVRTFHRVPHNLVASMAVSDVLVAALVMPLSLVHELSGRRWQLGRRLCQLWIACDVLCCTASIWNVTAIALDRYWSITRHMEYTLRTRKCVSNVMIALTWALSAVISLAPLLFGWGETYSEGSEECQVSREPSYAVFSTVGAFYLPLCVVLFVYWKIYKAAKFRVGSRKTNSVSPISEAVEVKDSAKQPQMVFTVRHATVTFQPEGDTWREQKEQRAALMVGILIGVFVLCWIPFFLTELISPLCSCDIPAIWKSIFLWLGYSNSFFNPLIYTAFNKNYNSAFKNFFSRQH

By EC50 is commonly meant the concentration that produces a half-maximal response. On to `CN1C(CC(=O)Nc2ccc(Br)cc2)c2ccccc2CC1(C)C` (stereo not drawn), for which the EC50 is 2.11 µM (active) in assay [1], > 92.5 µM (inactive) on Mu-type opioid receptor [2], 86.4 µM (inactive) in [3] and > 92.5 µM (inactive) in [4].
What is called IC50 is the midpoint of a concentration-inhibition curve. What is called AC50 is the concentration at which the activity in the assay is half-maximal. On to `N=c1c2c(n(Cc3ccc(Br)cc3)c3c1CCC3)CCCC2`, for which the IC50 in assay [5] was > 80 µM (inactive); with Jurkat it was 24.6 µM (inactive). Also, the values for the EC50 in assay [6] and in assay [7] were 0.26 µM (active) and > 60 µM (inconclusive), respectively. Moreover, in the assay with INS1, the concentration at half-maximal activity (AC50) is 2.64 µM (active).
Regarding `Fc1ccc(CSc2nnc(-c3ccccn3)n2Cc2cccs2)c(F)c1`, the EC50 in assay [8] was > 32 µM (inactive); in [9], 5.68 µM (active); at Mu-type opioid receptor [12], > 32 µM (inactive); in assay [14], 6.73 µM (active). The IC50 (in assay [10]; in [11]; at Mu-type opioid receptor [13]) was > 32 µM (inactive) in each case.
In the case of `CC(C)CN1C[C@@H]2C(CNC(=O)c3cc(Cl)cc(Cl)c3)[C@@H]2C1` (stereo partly drawn), in [15], the EC50 was 10 µM (active).
On to `COc1ccc(C(=O)C2CCCN(CCc3ccccc3)C2)cc1OC` (stereo not drawn), for which, in assay [16], the 50% effective concentration (EC50) is 0.0558 µM (active).
